Measured values from ChEMBL document CHEMBL2073813, “Regulation of renal oatp mRNA expression by testosterone” (Am J Physiol, 1996).

Assays:
[1] = target: T1, Solute carrier organic anion transporter family member 1A1 (Rattus norvegicus, UniProt P46720); assay: TP_TRANSPORTER: Northern blot in vivo, kidney of SD rat; format: functional, organism-based, Sprague-Dawley
T1 sequence (P46720 whole entry): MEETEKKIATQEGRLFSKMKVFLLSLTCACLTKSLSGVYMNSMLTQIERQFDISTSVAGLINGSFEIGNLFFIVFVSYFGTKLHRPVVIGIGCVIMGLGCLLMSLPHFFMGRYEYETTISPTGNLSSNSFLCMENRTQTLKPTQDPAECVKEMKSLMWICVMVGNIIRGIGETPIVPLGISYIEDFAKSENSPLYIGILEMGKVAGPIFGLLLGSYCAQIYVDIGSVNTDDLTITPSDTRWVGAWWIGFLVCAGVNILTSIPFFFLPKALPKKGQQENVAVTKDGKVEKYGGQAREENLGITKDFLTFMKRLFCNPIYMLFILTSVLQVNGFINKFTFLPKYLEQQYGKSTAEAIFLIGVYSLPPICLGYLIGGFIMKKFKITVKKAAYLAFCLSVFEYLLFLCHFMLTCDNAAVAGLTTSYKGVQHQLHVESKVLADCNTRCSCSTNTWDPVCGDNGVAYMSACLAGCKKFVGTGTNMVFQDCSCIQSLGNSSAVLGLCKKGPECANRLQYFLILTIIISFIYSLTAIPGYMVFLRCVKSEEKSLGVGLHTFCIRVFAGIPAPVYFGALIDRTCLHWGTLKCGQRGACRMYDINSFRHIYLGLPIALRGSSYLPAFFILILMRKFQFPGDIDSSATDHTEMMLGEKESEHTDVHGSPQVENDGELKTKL

[2] = target: T1, Solute carrier organic anion transporter family member 1A1; assay: TP_TRANSPORTER: Northern blot; format: functional

For `C[C@]12CC[C@H]3[C@@H](CCC4=CC(=O)CC[C@@]43C)[C@@H]1CC[C@@H]2O` [TESTOSTERONE], the Activity [1] was “inducer [+]”.
For `C[C@]12CC[C@@H]3c4ccc(O)cc4CC[C@H]3[C@@H]1CC[C@@H]2O` [ESTRADIOL], the Activity [2] was “inducer [+]”.
